The record followed here is ChEMBL document CHEMBL1151245, “Structures and histamine release inhibitory effects of prenylated orcinol derivatives from Rhododendron dauricum” (J Nat Prod, 2004).

In the assay the test system is Mast cell. Description: Inhibition of compound 48/80-induced histamine release in Wistar rat peritoneal mast cells. The class given is functional, cell-based.

Regarding `CC(C)=CCC/C(C)=C/CC/C(C)=C/Cc1c(O)cc(C)cc1O` [GRIFOLIN], the IC50 came out at 81.6 µM.
In the case of `C/C(=C\CC/C(C)=C/CC[C@]1(C)C=Cc2c(O)cc(C)cc2O1)CO` [DAURICHROMENE D] it was 1.3 µM; in that of `CC(C)=CCC/C(C)=C/CC[C@]1(C)C=Cc2c(O)cc(C)cc2O1` [CONFLUENTIN], 205 µM; in that of `C=C(CCC=C(C)C)C(O)CC[C@]1(C)C=Cc2c(O)cc(C)cc2O1` (stereo partly drawn) [DAURICHROMENE B], 4.4 µM.
Under `COc1ccc2c(c1)c(CC(=O)O)c(C)n2C(=O)c1ccc(Cl)cc1` [INDOMETHACIN] stands 250 µM; under `Cc1cc(O)cc(O)c1` [ORCINOL], “Not Active”.
In the case of `C/C(=C\CC[C@]1(C)C=Cc2c(O)cc(C)cc2O1)C/C=C\C(C)(C)O` [DAURICHROMENE C] it was 87.4 µM; in that of `C=C(C)C(O)CC/C(C)=C/CC[C@]1(C)C=Cc2c(O)cc(C)cc2O1` (stereo partly drawn) [DAURICHROMENE A], 1.6 µM.

For orientation: IC50 means the concentration that inhibits the measured activity by half. Low readings indicate inhibition by little substance, high ones a need for much substance.
